Test results as given in patent US12428455B2, “Dominant negative CEBPB and CEBPD proteins and methods of use for decreasing viability of neoplastic cells” (The Trustees of Columbia University in the City of New York, priority 2018, dated 2025).
No end group written: not given here.

Tests used:
[1] = test system: MDA-MB-231, MCF7, HCT116 and T98G cancer cell lines; assay: PI-Annexin staining and flow cytometry, cancer cell lines; format: cell-based; conditions: 20 μM, 3 days
Procedure: MDA-MB-231, MCF7, HCT116 and T98G cancer cell lines and HIEC-6 non-cancer cell lines were treated for 3 days with 20 μM CP-dn-CEBPB and CP-dn-CEBPD peptides from stock solutions prepared without additives, followed by PI-Annexin staining and flow cytometry. Numbers in upper and lower quadrants indicate % of cells in early (lower) or late (upper) apoptotic phase.

[2] = test system: MDA-MB 231, HCT116, and A375 cells; assay: Peptide treatment after doxorubicin pre-treatment, cell number; format: cell-based; conditions: for sensitivity of cells to peptide with or without doxorubicin pre-treatment: 100 nM doxorubicin 24 hours, then 1, 3, 10 or 20 μM peptide, 6 days; for effect on reversibly non-growing or slow-growing cancer cells: after pre-treatment with 100 nM doxorubicin for 24 hours
Procedure: Replicate cultures of MDA-MB 231, HCT116, and A375 cells were pretreated with 100 nM doxorubicin for 24 hours, and then treated with 1 μM, 3 μM, 10 μM, or 20 μM CP-dn-CEBPB and CP-dn-CEBPD peptides, maintained for 6 days, and then assessed for cell number. The bar graphs of FIGS. 31A (MDA-MB 231, CP-dn-CEBPB), 31C (MDA-MB 231, CP-dn-CEBPBD, 31E (HCT116, CP-dn-CEBPBD), 31G (HCT116, CP-dn-CEBPD), 31I (A375, CP-dn-CEBPBB), and 31K (A375, CP-dn-CEBPBD) show relative cell numbers for each condition as compared to untreated controls. The line graphs of FIGS. 31B (MDA-MB 231, CP-dn-CEBPB), 31D (MDA-MB 231, CP-dn-CEBPBD), 31F (HCT116, CP-dn-CEBPB), 31H (HCT116, CP-dn-CEBPD), 31J (A375, CP-dn-CEBPB), and 31L (A375, CP-dn-CEBPBD) show the response as normalized in each case so that 100 represents the relative number of surviving cells that received the indicated level of doxorubicin, but no peptide treatment.

[3] = Solubility of peptide stock after dilution; format: physicochemical; conditions: 20 mM of each of arginine and glutamate added to peptide stock buffer
Procedure: In some implementations, the mixture of arg/glu may be added at a molarity of, or of about 5 mM, 10 mM, 15 mM, 20 mM, 25 mM, or 30 mM.

T98G cells [4] = assay: Colony forming activity in soft agar, T98G; format: cell-based; conditions: 6 days; doses 0.05, 0.5 and 5 μM
Procedure: (§1) T98G (FIG. 21A), MDA-MB 231 (FIG. 21B), and HCT116 (FIG. 21C) cells were exposed to CP-DN-CEBPB and CP-DN-CEBPD for 6 days at doses of 0.05 μM 0.5 μM, and 5 μM while growing in soft agar. Growth was inhibited by does as low as 0.5 μM. T98G (FIG. 21D), MDA-MB 231 (FIG. 21E), and HCT116 (FIG. 21F) cells were exposed to CP-DN-CEBPB and CP-DN-CEBPD for 6 days at doses of 0.05 μM 0.5 μM, and 5 μM while growing on culture plates. Growth was inhibited by does as low as 0.5 μM.

IL8 = assay: qPCR for IL8 mRNA; format: cell-based; conditions: 20 μM, 3 days; T98G, MDA-MB-231, MCF7, A375 and HCT116 cells
Procedure: T98G, MDA-MB-231, MCF7, A375, and HCT116 cells were treated with or without 20 μM CP-dn-CEBPB or CP-dn-CEBPD for 3 days and then assessed by qPCR for relative levels of IL6 (FIG. 32A, T98G; FIG. 32B, MDA-MB-231; FIG. 32C, MCF7; FIG. 32D, A375; FIG. 32E, HCT116) and IL8 mRNA (FIG. 32F, T98G; FIG. 32G, MDA-MB-231; FIG. 32H, MCF7; FIG. 32I, A375; FIG. 32J, HCT116).

HCT116 cells = assay: Colony forming activity on culture plates, HCT116; format: cell-based; conditions: 6 days; doses 0.05, 0.5 and 5 μM
Procedure: as §1

[5] = test system: paclitaxel-resistant T98G cells; assay: Cell number, paclitaxel-resistant T98G cells; format: cell-based; conditions: 6 days; 0 μM to 50 μM peptide or 0 nM to 50 nM paclitaxel
Procedure: Replicate cultures of T98G wild type cells and paclitaxel-resistant T98G cells were treated with 0 nM to 50 nM paclitaxel or 0 μM to 50 μM CP-dn-CEBPB or CP-dn-CEBPD peptides, maintained for 6 days, and then assessed for cell number. Paclitaxel resistant T98G cells were inhibited by both CP-dn-CEBPB (FIG. 28A) and CP-dn-CEBPD (FIG. 28B), but, as expected were not inhibited by paclitaxel (FIG. 28C). This establishes that CP-dn-CEBPB and CP-dn-CEBPD may be effective against chemotherapy-resistant cells.

human astrocytes = assay: Morphology after peptide treatment, astrocytes; format: cell-based; conditions: 6 days, 0 μM or 50 μM; stock without BSA
Procedure: Replicate cultures of human astrocytes were exposed to CP-DN-CEBPB or CP-DN-CEBPD for 6 days at final concentrations of 0 μM or 50 μM. […] Stock solutions of the peptides were prepared in buffer without added bovine serum albumin (BSA).

T98G cells [6] = assay: Combination with gamma radiation, cell number, T98G; format: cell-based; conditions: 2 Gy or 5 Gy; peptide 0.05, 0.5 or 5 μM one day later, 6 days; CI<1 indicates synergism
Procedure: Replicate cultures of T98G and HCT116 cells were exposed to 2 Gy or 5 Gy of gamma radiation. One day later, the cultures were treated with 0.05 μM, 0.5 μM, or 5 μM CP-dn-CEBPB and CP-dn-CEBPD peptides, maintained for 6 days, and then assessed for cell number. The bar graphs of FIGS. 24A (T98G, CP-dn-CEBPB), 24C (T98G, CP-dn-CEBPBD, 24E (HCT116, CP-dn-CEBPD), and 24G (HCT116, CP-dn-CEBPD) show relative cell numbers for each condition as compared to untreated controls. The line graphs of FIGS. 24B (T98G, CP-dn-CEBPB), 24D (T98G, CP-dn-CEBPBD, 24F (HCT116, CP-dn-CEBPB), and 24H (HCT116, CP-dn-CEBPD) show the response as normalized in each case so that 100 represents the relative number of surviving cells that received the indicated level of radiation treatment, but no peptide treatment. Calculated Combination Indexes (CI) are T98G, CI=0.61±0.05 for CP-dn-CEBPB, 0.68±0.07 for CP-dn-CEBPD; HCT116, 0.89±0.04 for CP-dn-CEBPB, 0.86±0.05 for CP-dn-CEBPD. CI=1 indicates additivity; CI<1 indicates synergism; CI>1 indicates antagonism.

RQIKIWFQNRRMKWKKLETQHKVLELTAENERLQKKVEQLSRELSTLRNLFKQL [CP-DN-CEBPB]
apoptotic death (early or late apoptotic phase) [1]: caused apoptotic death in multiple cancer cell lines | sensitivity of cells to peptide with or without doxorubicin pre-treatment [2]: retain similar sensitivity | effect on reversibly non-growing or slow-growing cancer cells [2]: effective to treat reversibly non-growing or slow-growing cancer cells | solubility after dilution to the concentration applied to cultured LN229 cells [3]: maintained solubility | lowest dose at which growth was inhibited, soft agar (T98G cells [4]): 0.5 µM | relative levels of IL8 mRNA (IL8): suppress expression | lowest dose at which growth was inhibited, culture plates (HCT116 cells): 0.5 µM | inhibition of paclitaxel-resistant T98G cells (cell number) [5]: inhibited | morphology of human astrocytes (human astrocytes): did not affect the morphology | Combination Index (CI) with gamma radiation (T98G cells [6]): 0.61±0.05

RQIKIWFQNRRMKWKKLVELSAENEKLHQRVEQLTRDLAGLRQFFK [CP-DN-CEBPD]
apoptotic death (early or late apoptotic phase) [1]: caused apoptotic death in multiple cancer cell lines | sensitivity of cells to peptide with or without doxorubicin pre-treatment [2]: retain similar sensitivity | effect on reversibly non-growing or slow-growing cancer cells [2]: effective to treat reversibly non-growing or slow-growing cancer cells | solubility after dilution to the concentration applied to cultured LN229 cells [3]: maintained solubility | lowest dose at which growth was inhibited, soft agar (T98G cells [4]): 0.5 µM | relative levels of IL8 mRNA (IL8): suppress expression | lowest dose at which growth was inhibited, culture plates (HCT116 cells): 0.5 µM | inhibition of paclitaxel-resistant T98G cells (cell number) [5]: inhibited | morphology of human astrocytes (human astrocytes): did not affect the morphology | Combination Index (CI) with gamma radiation (T98G cells [6]): 0.68±0.07
